Results reported in ChEMBL document CHEMBL4507261, “Data for DCP probe A-192621” (2021).

How the values were obtained:
Details in all cases: Compound concentration 10.0 uM
[1] = biological target: D(1B) dopamine receptor (Homo sapiens) (UniProt P21918)
[2] = biological target: GABA-A receptor; anion channel (Rattus norvegicus) (UniProt O09028+P15431+P18506+P18508+P19969+P20236+P23574+P23576+P28471+P28473+P30191+P62813+P63079+P63138+Q91ZM7+Q9ES14)
[3] = biological target: T1, Alpha-1B adrenergic receptor (Homo sapiens) (UniProt P35368)
T1 sequence (whole entry): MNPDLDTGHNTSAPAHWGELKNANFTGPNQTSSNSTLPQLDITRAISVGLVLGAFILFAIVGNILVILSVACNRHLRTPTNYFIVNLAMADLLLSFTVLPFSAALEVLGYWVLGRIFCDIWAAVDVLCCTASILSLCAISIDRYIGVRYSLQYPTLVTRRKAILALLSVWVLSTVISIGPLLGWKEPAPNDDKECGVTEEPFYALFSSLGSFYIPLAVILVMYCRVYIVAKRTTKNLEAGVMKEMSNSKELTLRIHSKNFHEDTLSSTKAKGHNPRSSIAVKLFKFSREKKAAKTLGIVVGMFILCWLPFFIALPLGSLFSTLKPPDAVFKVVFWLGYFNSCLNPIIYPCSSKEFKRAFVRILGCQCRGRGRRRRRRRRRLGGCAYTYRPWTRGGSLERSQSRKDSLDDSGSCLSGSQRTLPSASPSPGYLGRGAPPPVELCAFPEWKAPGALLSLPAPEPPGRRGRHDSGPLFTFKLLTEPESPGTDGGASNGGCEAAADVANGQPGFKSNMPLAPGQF

Measured: inhibition

Chain of D(1B) dopamine receptor (Homo sapiens) (P21918 whole entry): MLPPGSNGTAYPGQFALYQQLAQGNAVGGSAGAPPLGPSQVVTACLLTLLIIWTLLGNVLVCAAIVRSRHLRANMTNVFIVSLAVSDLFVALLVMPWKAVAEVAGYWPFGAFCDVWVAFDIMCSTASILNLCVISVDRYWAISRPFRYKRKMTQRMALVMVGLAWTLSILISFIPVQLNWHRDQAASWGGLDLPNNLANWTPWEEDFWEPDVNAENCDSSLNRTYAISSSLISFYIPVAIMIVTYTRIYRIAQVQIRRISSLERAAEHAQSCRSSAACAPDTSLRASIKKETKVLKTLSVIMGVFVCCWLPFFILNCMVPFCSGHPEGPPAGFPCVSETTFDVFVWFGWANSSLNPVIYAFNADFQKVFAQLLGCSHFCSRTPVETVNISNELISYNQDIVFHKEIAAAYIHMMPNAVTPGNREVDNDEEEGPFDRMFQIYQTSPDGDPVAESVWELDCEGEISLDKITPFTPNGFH

CCCOc1ccc([C@H]2[C@H](C(=O)O)[C@@H](c3ccc4c(c3)OCO4)CN2CC(=O)Nc2c(CC)cccc2CC)cc1 [A-192621]
inactive: [1] 11% | [2] 19.6% | [3] -2.22%
